Experimental data published in US7045343B2, “Sterilization indicator test packs” (3M Innovative Properties Company, priority 1998, dated 2006).

Columns and labels:
[1] = tested on: enzyme associated with Bacillus stearothermophilus spores; test: Rapid enzyme fluorescence readout of indicators after hydrogen peroxide plasma sterilization; format: biochemical; conditions: for accuracy of sterilization indicators compared to indicators made with untreated spores: 1–3 hours after exposure; for FLUORESCENCE - PERCENT POSITIVE 1 HR / FLUORESCENCE - PERCENT POSITIVE 2 HR / FLUORESCENCE - PERCENT POSITIVE 3 HR / FLUORESCENCE - PERCENT POSITIVE 4 HR / FLUORESCENCE - PERCENT POSITIVE 5 HR: 1–22 min diffusion
Description: (§1) Sterilization indicators for Examples 6–9 were prepared as described above with the exception that closure member 22 of the sterilization indicator was constructed of TYVEK™ high-density polyethylene fiber material, commercially available from E.I. du Pont de Nemours and Co., Wilmington, Del.
(§2) Sterilization indicators were made as described above with spores that had been coated with each of the chemicals and concentrations listed in Table 6. The indicators were placed in instrument trays and exposed to a hydrogen peroxide plasma sterilization procedure at 45–55° C. in a STERRAD™ 100SI GMP Sterilizer, obtained from Advanced Sterilization Products Co., Irvine, Calif. During the sterilization procedure a vacuum was drawn in the sterilization chamber for 5–6 minutes until the pressure was reduced to 300 mTorr. A 1.8 ml aliquot of an aqueous solution of 58–60% hydrogen peroxide was then injected into the sterilization chamber over a period of about 6 minutes, yielding an empty chamber concentration of […] hydrogen peroxide, and hydrogen peroxide vapor was allowed to diffuse throughout the chamber for 1–22 minutes at 6–10 Torr. A vacuum was then drawn, reducing the pressure to 500 mTorr and removing all detectable hydrogen peroxide vapor from the chamber.
(§3) After exposure to the sterilization procedure, the indicators were removed from the sterilizer and the inner containers containing the enzyme substrate and nutrient medium were crushed. The indicators were then incubated at 60° C. and examined for fluorescence every hour for 5 hours using a 3M™ ATTEST™ Model 190 Rapid Autoreader, commercially available from 3M Company, St. Paul, Minn. Additionally, spore growth, as indicated by a color change from purple to yellow, was determined visually after 168 hours of incubation.
(§4) The number of growth positive indicators detected after 168 hours of incubation is recorded in Table 6.
as §2, with “7.” for “6.”
as §2, with “8.” for “6.”, “chamber. […]” for “chamber.”

[2] = tested on: Bacillus stearothermophilus spores; test: Spore outgrowth (color change) of indicators after prevacuum steam sterilization; format: cell-based; conditions: Example 4, 4-pulse prevacuum steam 121° C., 7–18 min
Method in brief: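 Bacillus stearothermophilus ATCC 7953 spores were cleaned, mixed into a heated sterilant-resistant coating chemical solution and pipetted onto paper strips at about 1×10^6 spores per strip. The strips were dried and placed in indicators, then exposed to a 4-pulse prevacuum steam cycle at 121° C. After exposure the media ampoule was crushed, and growth was judged visually as a purple-to-yellow color change after 168 hours at 60° C.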

[3] = tested on: enzyme associated with Bacillus stearothermophilus spores; test: Rapid enzyme fluorescence readout of dual rapid readout indicators after prevacuum steam sterilization; format: biochemical; conditions: 4-pulse prevacuum steam 121° C.; for FLUORESCENCE - PERCENT POSITIVE 1 HR / FLUORESCENCE - PERCENT POSITIVE 2 HR / FLUORESCENCE - PERCENT POSITIVE 3 HR / FLUORESCENCE - PERCENT POSITIVE 4 HR: Example 4, 7–18 min
Method in brief: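 Bacillus stearothermophilus ATCC 7953 spores were coated with a sterilant-resistant chemical solution and pipetted onto paper strips at about 1×10^6 spores per strip. Each strip sat in a dual rapid readout indicator beside a crushable inner container of nutrient medium holding 4-methylumbelliferyl-alpha-D-glucoside at pH 7.6. Indicators went through a 4-pulse prevacuum steam cycle at 121° C, were activated, incubated at 60° C, and read for fluorescence on a 3M ATTEST Model 190 Rapid Autoreader.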

[4] = tested on: Bacillus stearothermophilus spores; test: Spore outgrowth (color change) of indicators after hydrogen peroxide plasma sterilization; format: cell-based; conditions: 1–22 min diffusion
Description: as §1, §2, §3, §4
as §2, with “7.” for “6.”
as §2, with “8.” for “6.”, “chamber. […]” for “chamber.”

Tetraglyceryl Monooleate was tested, and the “accuracy of sterilization indicators compared to indicators made with untreated spores” value [1] was “improved”, the “FLUORESCENCE - PERCENT POSITIVE 1 HR” value ([1]; Example 6, 50 mg/ml coating) was 76.6% and the “FLUORESCENCE - PERCENT POSITIVE 2 HR” value ([1]; Example 6, 50 mg/ml coating) was 90.9%. The “FLUORESCENCE - PERCENT POSITIVE 3 HR” value ([1]; Example 6, 50 mg/ml coating) was 100%, the “FLUORESCENCE - PERCENT POSITIVE 4 HR” value ([1]; Example 6, 50 mg/ml coating) was 100% and the “FLUORESCENCE - PERCENT POSITIVE 5 HR” value ([1]; Example 6, 50 mg/ml coating) was 100%. For the same substance, the “NO. GROWTH POSITIVE 168 HR” value ([2]; 50 mg/ml coating) was 17, the “NO. GROWTH POSITIVE 168 HR” value ([2]; 100 mg/ml coating) was 35 and the “accuracy of sterilization indicators compared to indicators made with untreated spores” value [3] was “improved”. For the same substance, the “FLUORESCENCE - PERCENT POSITIVE 1 HR” value ([3]; 50 mg/ml coating) was 0.0%, the “FLUORESCENCE - PERCENT POSITIVE 2 HR” value ([3]; 50 mg/ml coating) was 52.9% and the “FLUORESCENCE - PERCENT POSITIVE 3 HR” value ([3]; 50 mg/ml coating) was 52.9%. The “FLUORESCENCE - PERCENT POSITIVE 4 HR” value ([3]; 50 mg/ml coating) was 58.8%, the “FLUORESCENCE - PERCENT POSITIVE 1 HR” value ([3]; 100 mg/ml coating) was 57.1% and the “FLUORESCENCE - PERCENT POSITIVE 2 HR” value ([3]; 100 mg/ml coating) was 100.0%. For the same substance, the “FLUORESCENCE - PERCENT POSITIVE 3 HR” value ([3]; 100 mg/ml coating) was 100.0%, the “FLUORESCENCE - PERCENT POSITIVE 4 HR” value ([3]; 100 mg/ml coating) was 100.0% and the “NO. GROWTH POSITIVE 168 HR” value ([4]; Example 6, 50 mg/ml coating) was 11.

For Decaglyceral Hexaoleate, the “accuracy of sterilization indicators compared to indicators made with untreated spores” value [1] was “improved”, the “FLUORESCENCE - PERCENT POSITIVE 1 HR” value ([1]; Example 6, 10 mg/ml coating) was 100% and the “FLUORESCENCE - PERCENT POSITIVE 2 HR” value ([1]; Example 6, 10 mg/ml coating) was 100%. For the same substance, the “FLUORESCENCE - PERCENT POSITIVE 3 HR” value ([1]; Example 6, 10 mg/ml coating) was 100%, the “FLUORESCENCE - PERCENT POSITIVE 4 HR” value ([1]; Example 6, 10 mg/ml coating) was 100% and the “FLUORESCENCE - PERCENT POSITIVE 5 HR” value ([1]; Example 6, 10 mg/ml coating) was 100%. The “NO. GROWTH POSITIVE 168 HR” value ([2]; 50 mg/ml coating) was 9, the “NO. GROWTH POSITIVE 168 HR” value ([2]; 100 mg/ml coating) was 18 and the “FLUORESCENCE - PERCENT POSITIVE 1 HR” value ([3]; 50 mg/ml coating) was 0%. The “FLUORESCENCE - PERCENT POSITIVE 2 HR” value ([3]; 50 mg/ml coating) was 0%, the “FLUORESCENCE - PERCENT POSITIVE 3 HR” value ([3]; 50 mg/ml coating) was 22.2% and the “FLUORESCENCE - PERCENT POSITIVE 4 HR” value ([3]; 50 mg/ml coating) was 55.6%. The “FLUORESCENCE - PERCENT POSITIVE 1 HR” value ([3]; 100 mg/ml coating) was 5.6%, the “FLUORESCENCE - PERCENT POSITIVE 2 HR” value ([3]; 100 mg/ml coating) was 16.7% and the “FLUORESCENCE - PERCENT POSITIVE 3 HR” value ([3]; 100 mg/ml coating) was 27.8%. For the same substance, the “FLUORESCENCE - PERCENT POSITIVE 4 HR” value ([3]; 100 mg/ml coating) was 33.3% and the “NO. GROWTH POSITIVE 168 HR” value ([4]; Example 6, 10 mg/ml coating) was 12.

In the case of Decaglyceryl Pentaoleate, the “accuracy of sterilization indicators compared to indicators made with untreated spores” value [1] is reported as “improved”, the “FLUORESCENCE - PERCENT POSITIVE 1 HR” value ([1]; Example 6, 50 mg/ml coating) is reported as 82.4% and the “FLUORESCENCE - PERCENT POSITIVE 2 HR” value ([1]; Example 6, 50 mg/ml coating) is reported as 94.1%. For the same substance, the “FLUORESCENCE - PERCENT POSITIVE 3 HR” value ([1]; Example 6, 50 mg/ml coating) was 100%, the “FLUORESCENCE - PERCENT POSITIVE 4 HR” value ([1]; Example 6, 50 mg/ml coating) was 100% and the “FLUORESCENCE - PERCENT POSITIVE 5 HR” value ([1]; Example 6, 50 mg/ml coating) was 100%. The “NO. GROWTH POSITIVE 168 HR” value ([2]; 50 mg/ml coating) was 16, the “NO. GROWTH POSITIVE 168 HR” value ([2]; 100 mg/ml coating) was 24 and the “FLUORESCENCE - PERCENT POSITIVE 1 HR” value ([3]; 50 mg/ml coating) was 0%. For the same substance, the “FLUORESCENCE - PERCENT POSITIVE 2 HR” value ([3]; 50 mg/ml coating) was 0%, the “FLUORESCENCE - PERCENT POSITIVE 3 HR” value ([3]; 50 mg/ml coating) was 18.8% and the “FLUORESCENCE - PERCENT POSITIVE 4 HR” value ([3]; 50 mg/ml coating) was 31.3%. For the same substance, the “FLUORESCENCE - PERCENT POSITIVE 1 HR” value ([3]; 100 mg/ml coating) was 12.5%, the “FLUORESCENCE - PERCENT POSITIVE 2 HR” value ([3]; 100 mg/ml coating) was 25.0% and the “FLUORESCENCE - PERCENT POSITIVE 3 HR” value ([3]; 100 mg/ml coating) was 37.5%. The “FLUORESCENCE - PERCENT POSITIVE 4 HR” value ([3]; 100 mg/ml coating) was 45.8% and the “NO. GROWTH POSITIVE 168 HR” value ([4]; Example 6, 50 mg/ml coating) was 17.

For Hexaglyceryl Dioleate, the “FLUORESCENCE - PERCENT POSITIVE 1 HR” value ([1]; Example 6, 50 mg/ml coating) was 66.7%, the “FLUORESCENCE - PERCENT POSITIVE 2 HR” value ([1]; Example 6, 50 mg/ml coating) was 100% and the “FLUORESCENCE - PERCENT POSITIVE 3 HR” value ([1]; Example 6, 50 mg/ml coating) was 100%. The “FLUORESCENCE - PERCENT POSITIVE 4 HR” value ([1]; Example 6, 50 mg/ml coating) was 100%, the “FLUORESCENCE - PERCENT POSITIVE 5 HR” value ([1]; Example 6, 50 mg/ml coating) was 100% and the “NO. GROWTH POSITIVE 168 HR” value ([2]; 50 mg/ml coating) was 7. The “NO. GROWTH POSITIVE 168 HR” value ([2]; 100 mg/ml coating) was 23, the “FLUORESCENCE - PERCENT POSITIVE 1 HR” value ([3]; 50 mg/ml coating) was 0% and the “FLUORESCENCE - PERCENT POSITIVE 2 HR” value ([3]; 50 mg/ml coating) was 0%. The “FLUORESCENCE - PERCENT POSITIVE 3 HR” value ([3]; 50 mg/ml coating) was 0%, the “FLUORESCENCE - PERCENT POSITIVE 4 HR” value ([3]; 50 mg/ml coating) was 0% and the “FLUORESCENCE - PERCENT POSITIVE 1 HR” value ([3]; 100 mg/ml coating) was 0%. The “FLUORESCENCE - PERCENT POSITIVE 2 HR” value ([3]; 100 mg/ml coating) was 0%, the “FLUORESCENCE - PERCENT POSITIVE 3 HR” value ([3]; 100 mg/ml coating) was 0% and the “FLUORESCENCE - PERCENT POSITIVE 4 HR” value ([3]; 100 mg/ml coating) was 0%. For the same substance, the “NO. GROWTH POSITIVE 168 HR” value ([4]; Example 6, 50 mg/ml coating) was 6.
